According to patent publication US20110053982A1, “ETHER BENZYLIDENE PIPERIDINE 5-MEMBERED ARYL CARBOXAMIDE COMPOUNDS USEFUL AS FAAH INHIBITORS” (PFIZER INC., priority 2008, published 2011):
Where two headings read alike, the source gives them in different places.

Experiments:
rFAAH = biological target: T1, rFAAH (Rattus norvegicus, UniProt P97612); assay: FAAH assay, rFAAH kobs/I; assay type: biochemical; conditions: additional data table, unit not given
T1 sequence (P97612 1-579): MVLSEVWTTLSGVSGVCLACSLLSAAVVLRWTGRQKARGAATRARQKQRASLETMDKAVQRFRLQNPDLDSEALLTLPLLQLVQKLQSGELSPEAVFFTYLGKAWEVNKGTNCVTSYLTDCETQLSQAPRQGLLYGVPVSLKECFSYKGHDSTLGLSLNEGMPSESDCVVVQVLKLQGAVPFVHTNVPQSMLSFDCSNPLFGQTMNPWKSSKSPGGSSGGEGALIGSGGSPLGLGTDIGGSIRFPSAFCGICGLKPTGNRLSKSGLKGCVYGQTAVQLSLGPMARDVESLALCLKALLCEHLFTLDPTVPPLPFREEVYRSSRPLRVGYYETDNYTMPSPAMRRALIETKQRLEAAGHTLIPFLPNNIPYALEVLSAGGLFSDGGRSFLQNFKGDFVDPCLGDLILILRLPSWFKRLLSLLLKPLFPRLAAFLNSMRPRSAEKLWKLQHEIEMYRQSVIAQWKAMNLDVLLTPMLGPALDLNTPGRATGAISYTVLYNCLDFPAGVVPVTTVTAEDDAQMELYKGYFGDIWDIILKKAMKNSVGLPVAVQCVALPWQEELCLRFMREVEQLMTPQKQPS

Human FAAH = biological target: T2, Human FAAH (Homo sapiens, UniProt O00519); assay: FAAH assay, kinetic analysis of irreversible inhibition (kinact/Ki); assay type: biochemical
T2 construct: made in house
T2 sequence (O00519 32-579 limits assumed): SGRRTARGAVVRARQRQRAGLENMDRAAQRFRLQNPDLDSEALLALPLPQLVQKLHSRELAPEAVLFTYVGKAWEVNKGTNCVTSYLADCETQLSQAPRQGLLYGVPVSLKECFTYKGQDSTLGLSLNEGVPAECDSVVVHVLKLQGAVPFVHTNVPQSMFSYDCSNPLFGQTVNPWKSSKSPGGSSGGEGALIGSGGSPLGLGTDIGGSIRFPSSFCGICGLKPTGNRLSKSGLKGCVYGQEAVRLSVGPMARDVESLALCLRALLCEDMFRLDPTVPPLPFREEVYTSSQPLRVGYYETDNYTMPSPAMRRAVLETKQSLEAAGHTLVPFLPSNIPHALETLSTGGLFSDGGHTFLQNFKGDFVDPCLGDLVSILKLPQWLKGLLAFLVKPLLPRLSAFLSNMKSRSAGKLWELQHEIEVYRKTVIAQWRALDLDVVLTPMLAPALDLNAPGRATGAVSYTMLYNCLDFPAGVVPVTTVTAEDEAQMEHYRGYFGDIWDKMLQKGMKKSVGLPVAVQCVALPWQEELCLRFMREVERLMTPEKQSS
Description: A FAAH assay may be carried out in 384-well clear polystyrene plates in a total volume of 50 μl per well. All percents are by volume. To each well is placed the reaction mixture (40 μl) containing 1-4 nM FAAH, 50 mM NaPi, pH 7.4, 3 mM α-ketoglutarate, 0.15 mM NADH, 7.5 U/ml glutamate dehydrogenase, 2 mM ADP, 1 mM EDTA, and 0.1% Triton X-100 (The concentration shown for each component is the final concentration in the assay). To this mixture is added 5 μl of a compound of Examples 1 to 20 at various concentrations prepared in 50% DMSO (or 5 μl 50% DMSO for controls). This is immediately followed by the addition of 5 μl oleamide (500 μM) dissolved in […] and the reaction mixture is mixed for 1.5 min. The final concentrations of DMSO and EtOH in the assay are each 7.5%. The reactions is then incubated at 30° C. and the absorbance at 340 nm is collected over a period of 90 min with readings taken in 30-second intervals using SpectraMax Plus^384 Microplate Spectrophotometer (Molecular Devices, Sunnyvale, Calif.). Human FAAH used in the assay is prepared as described in the patent application WO 2006/067613. The purity of the enzyme used is preferably greater than 98% based on an analysis by SDS-polyacrylamide gel electrophoresis followed by Coomassie Blue staining.
Initial velocity data (V) is obtained from the slopes of the initial progressive curves. They are plotted as a function of substrate concentration and fit to the Michaelis-Menten equation (1) using Prism (GraphPad Software, Inc., San Diego, Calif.) software to obtain Km and Vmax values.
To obtain potencies of irreversible inhibitors, progressive curves consistent with first order inhibition kinetics (two-step irreversible inhibition mechanism) are fit to equation (2) by nonlinear least squares regressions to determine kobs values at each inhibitor concentration, where [P]t is the absorbance at time t, V0 is a constant related to the steady state rate of the uninhibited reaction, and kobs is the first order rate constant for enzyme inactivation. The inhibitor dissociation constant (Ki) and the first order rate
constant of enzyme inactivation at infinite inhibitor concentration (kinact) are then obtained by fitting the kobs vs. [I] curves to equation (3).

[1] = additional data table, unit inferred, read-out: hFAAH_Kinact/Ki

Row | SMILES | FAAH_KINACTR:rFAAH:kobs/I (rFAAH) | kinact/KI (Human FAAH; [1]) | kinact/KI (Human FAAH; oleamide substrate, 30° C., pH 7.4, read-out: hFAAH KInact/KI)
1 | CCCCOc1cccc(C=C2CCN(C(=O)Nc3onc(C)c3C)CC2)c1 [4-(3-butoxybenzylidene)-N-(3,4-dimethylisoxazol-5-yl)piperidine-1-carboxamide] | 2820 | 14800 M⁻¹ s⁻¹ | –
2 | CCCCOc1cccc(C=C2CCN(C(=O)Nc3cnoc3C)CC2)c1 [4-(3-butoxybenzylidene)-N-(5-methylisoxazol-4-yl)piperidine-1-carboxamide] | 12.9 | 2120 M⁻¹ s⁻¹ | –
3 | Cc1noc(NC(=O)N2CCC(=Cc3cccc(OCCC4CC4)c3)CC2)c1C [4-[3-(2-cyclopropylethoxy)benzylidene]-N-(3,4-dimethylisoxazol-5-yl)piperidine-1-carboxamide] | 2660 | 12900 M⁻¹ s⁻¹ | –
4 | Cc1oncc1NC(=O)N1CCC(=Cc2cccc(OCCOC(C)C)c2)CC1 [4-[3-(2-isopropoxyethoxy)benzylidene]-N-(5-methylisoxazol-4-yl)piperidine-1-carboxamide] | <12.6 | 2670 M⁻¹ s⁻¹ | –
5 | Cc1oncc1NC(=O)N1CCC(=Cc2cccc(OCCCc3cnoc3)c2)CC1 [4-[3-(3-isoxazol-4-ylpropoxy)benzylidene]-N-(5-methylisoxazol-4-yl)piperidine-1-carboxamide] | <13.2 | 3990 M⁻¹ s⁻¹ | –
6 | Cc1noc(NC(=O)N2CCC(=Cc3cccc(OCC4CCCC4)c3)CC2)c1C [4-[3-(cyclopentylmethoxy)benzylidene]-N-(3,4-dimethylisoxazol-5-yl)piperidine-1-carboxamide] | 2360 | 5110 M⁻¹ s⁻¹ | –
7 | Cc1oncc1NC(=O)N1CCC(=Cc2cccc(OCC3CCCC3)c2)CC1 [4-[3-(cyclopentylmethoxy)benzylidene]-N-(5-methylisoxazol-4-yl)piperidine-1-carboxamide] | <10.0 | 838 M⁻¹ s⁻¹ | –
8 | Cc1oncc1NC(=O)N1CCC(=Cc2cccc(OCCc3cccc(F)c3)c2)CC1 [4-{3-[2-(3-fluorophenyl)ethoxy]benzylidene}-N-(5-methylisoxazol-4-yl)piperidine-1-carboxamide] | 59.9 | 11000 M⁻¹ s⁻¹ | –
9 | Cc1oncc1NC(=O)N1CCC(=Cc2cccc(OCCc3ccc(F)cc3)c2)CC1 [4-{3-[2-(4-fluorophenyl)ethoxy]benzylidene}-N-(5-methylisoxazol-4-yl)piperidine-1-carboxamide] | 52.7 | 1480 M⁻¹ s⁻¹ | –
10 | Cc1noc(NC(=O)N2CCC(=Cc3cccc(OCC4CCC(F)(F)CC4)c3)CC2)c1C [4-{3-[(4,4-difluorocyclohexyl)methoxy]benzylidene}-N-(3,4-dimethylisoxazol-5-yl)piperidine-1-carboxamide] | 5360 | 3970 M⁻¹ s⁻¹ | –
11 | Cc1oncc1NC(=O)N1CCC(=Cc2cccc(OCC3CCC(F)(F)CC3)c2)CC1 [4-{3-[(4,4-difluorocyclohexyl)methoxy]benzylidene}-N-(5-methylisoxazol-4-yl)piperidine-1-carboxamide] | 16.2 | 1730 M⁻¹ s⁻¹ | –
12 | CCCC(C)Oc1cccc(C=C2CCN(C(=O)Nc3onc(C)c3C)CC2)c1 (centres unmarked) [N-(3,4-dimethylisoxazol-5-yl)-4-[3-(1-methylbutoxy)benzylidene]piperidine-1-carboxamide] | 4610 | 4600 M⁻¹ s⁻¹ | –
13 | Cc1noc(NC(=O)N2CCC(=Cc3cccc(OCCC(C)C)c3)CC2)c1C [N-(3,4-dimethylisoxazol-5-yl)-4-[3-(3-methylbutoxy)benzylidene]piperidine-1-carboxamide] | 2590 | 7710 M⁻¹ s⁻¹ | –
14 | Cc1noc(NC(=O)N2CCC(=Cc3cccc(OCC(C)CC(F)(F)F)c3)CC2)c1C (centres unmarked) [N-(3,4-dimethylisoxazol-5-yl)-4-[3-(4,4,4-trifluoro-2-methylbutoxy)benzylidene]piperidine-1-carboxamide] | 2530 | 5190 M⁻¹ s⁻¹ | –

Second part, the molecule after the results:

Row | FAAH_KINACTR:rFAAH:kobs/I (rFAAH) | kinact/KI (Human FAAH; [1]) | kinact/KI (Human FAAH; oleamide substrate, 30° C., pH 7.4, read-out: hFAAH KInact/KI) | SMILES
15 | 1750 | 2540 M⁻¹ s⁻¹ | – | Cc1noc(NC(=O)N2CCC(=Cc3cccc(OC4CCC(F)(F)CC4)c3)CC2)c1C [4-{3-[(4,4-difluorocyclohexyl)oxy]benzylidene}-N-(3,4-dimethylisoxazol-5-yl)piperidine-1-carboxamide]
16 | 19.8 | 2900 M⁻¹ s⁻¹ | – | Cc1oncc1NC(=O)N1CCC(=Cc2cccc(OC3CCC(F)(F)CC3)c2)CC1 [4-{3-[(4,4-difluorocyclohexyl)oxy]benzylidene}-N-(5-methylisoxazol-4-yl)piperidine-1-carboxamide]
17 | <10.0 | 1530 M⁻¹ s⁻¹ | – | O=C(Nc1cnoc1)N1CCC(=Cc2cccc(OC3CCC(F)(F)CC3)c2)CC1 [4-{3-[(4,4-difluorocyclohexyl)oxy]benzylidene}-N-isoxazol-4-ylpiperidine-1-carboxamide]
18 | 4910 | 959 M⁻¹ s⁻¹ | – | Cc1noc(NC(=O)N2CCC(=Cc3cccc(OC4CCC(C)(C)CC4)c3)CC2)c1C [4-{3-[(4,4-dimethylcyclohexyl)oxy]benzylidene}-N-(3,4-dimethylisoxazol-5-yl)piperidine-1-carboxamide]
19 | 160 | 2860 M⁻¹ s⁻¹ | – | Cc1oncc1NC(=O)N1CCC(=Cc2cccc(OC3CCC(C)(C)CC3)c2)CC1 [4-{3-[(4,4-dimethylcyclohexyl)oxy]benzylidene}-N-(5-methylisoxazol-4-yl)piperidine-1-carboxamide]
20 | – | – | 5450 M⁻¹ s⁻¹ | Cc1noc(NC(=O)N2CCC(=Cc3cccc(OCC4CCCCO4)c3)CC2)c1C (centres unmarked) [Example 1, N-(3,4-dimethylisoxazol-5-yl)-4-[3-(tetrahydro-2H-pyran-2-ylmethoxy)benzylidene]piperidine-1-carboxamide]
21 | 1610 | 7490 M⁻¹ s⁻¹ | – | Cn1nnnc1NC(=O)N1CCC(=Cc2cccc(OCC3CCCCO3)c2)CC1 (centres unmarked) [N-(1-methyl-1H-tetrazol-5-yl)-4-[3-(tetrahydro-2H-pyran-2-ylmethoxy)benzylidene]piperidine-1-carboxamide]
22 | 10600 | 3410 M⁻¹ s⁻¹ | – | Cc1noc(NC(=O)N2CCC(=Cc3cccc(OC(C)Cc4ccccc4)c3)CC2)c1C (centres unmarked) [N-(3,4-dimethylisoxazol-5-yl)-4-[3-(1-methyl-2-phenylethoxy)benzylidene]piperidine-1-carboxamide]
23 | 4760 | 12700 M⁻¹ s⁻¹ | – | Cc1noc(NC(=O)N2CCC(=Cc3cccc(OCCOC(C)C)c3)CC2)c1C [N-(3,4-dimethylisoxazol-5-yl)-4-[3-(2-isopropoxyethoxy)benzylidene]piperidine-1-carboxamide]
24 | 2580 | 7170 M⁻¹ s⁻¹ | – | Cc1noc(NC(=O)N2CCC(=Cc3cccc(OCCCc4cnoc4)c3)CC2)c1C [N-(3,4-dimethylisoxazol-5-yl)-4-[3-(3-isoxazol-4-ylpropoxy)benzylidene]piperidine-1-carboxamide]
